Experimental data as given in patent US20070004660A1, “Synergistic Modulation of Flt3 Kinase Using Alkylquinolines and Alkylquinazolines” (priority 2005, published 2007).
pIC50: −log10 of the molar value.

Target: T1, wild-type FLT3 receptor (Homo sapiens, UniProt P36888)
T1 construct: host or cells: Baf3 (murine B cell lymphoma line), stably transfected
T1 sequence (P36888 27-993): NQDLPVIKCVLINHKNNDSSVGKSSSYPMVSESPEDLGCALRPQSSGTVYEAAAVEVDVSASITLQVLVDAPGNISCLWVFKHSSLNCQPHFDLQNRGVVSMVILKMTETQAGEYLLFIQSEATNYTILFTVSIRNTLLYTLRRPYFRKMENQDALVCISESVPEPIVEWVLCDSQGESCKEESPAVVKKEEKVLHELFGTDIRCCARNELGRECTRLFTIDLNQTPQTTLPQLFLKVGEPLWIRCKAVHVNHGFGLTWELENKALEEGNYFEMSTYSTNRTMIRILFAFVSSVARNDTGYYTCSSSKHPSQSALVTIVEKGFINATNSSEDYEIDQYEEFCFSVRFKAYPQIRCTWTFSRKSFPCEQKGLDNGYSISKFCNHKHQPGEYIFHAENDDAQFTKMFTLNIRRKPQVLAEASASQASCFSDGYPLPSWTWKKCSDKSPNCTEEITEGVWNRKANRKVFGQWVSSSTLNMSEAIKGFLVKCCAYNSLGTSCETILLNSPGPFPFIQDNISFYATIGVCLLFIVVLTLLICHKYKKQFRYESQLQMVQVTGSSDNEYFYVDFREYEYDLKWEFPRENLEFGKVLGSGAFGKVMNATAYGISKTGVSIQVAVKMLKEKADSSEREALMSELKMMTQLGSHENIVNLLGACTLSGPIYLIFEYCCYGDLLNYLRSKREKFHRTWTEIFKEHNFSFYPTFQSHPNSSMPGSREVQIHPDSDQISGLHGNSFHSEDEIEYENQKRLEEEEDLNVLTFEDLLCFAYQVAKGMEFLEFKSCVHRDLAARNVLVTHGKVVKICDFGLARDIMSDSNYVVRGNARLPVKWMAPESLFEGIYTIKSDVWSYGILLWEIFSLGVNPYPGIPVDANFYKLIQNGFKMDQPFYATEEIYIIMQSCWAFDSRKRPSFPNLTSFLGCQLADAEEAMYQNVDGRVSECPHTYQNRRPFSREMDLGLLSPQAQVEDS
Assay: Cell-based FLT3 receptor ELISA (FLT ligand-induced phosphorylation in Baf3 FLT3 cells)
Settings: 100 ng/mL Flt ligand, uncertainty ±20%
Method in brief: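 Receptor phosphotyrosine measured by sandwich ELISA (anti-FLT3 capture, HRP anti-pTyr, luminescence) in FLT3-transfected murine Baf3 cells given 1 h compound pretreatment and 10 min 100 ng/mL FLT ligand after overnight low-serum starvation; triplicates, IC50 from nonlinear regression.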

Row | Compound | pIC50
1 | O=C(Nc1ccc(N2CCOCC2)cc1)N1CCC(c2ncnc3cc(OCCN4CCOC4=O)ccc23)CC1 [Example 148, 4-{7-[2-(2-Oxo-oxazolidin-3-yl)-ethoxy]-quinazolin-4-yl}-piperidine-1-carboxylic acid (4-morpholin-4-yl-phenyl)-amide] | 7.08
2 | CN(C)[C@@H]1CCN(c2ccc3c(C4CCN(C(=O)Nc5ccc(N6CCCC6)cc5)CC4)ncnc3c2)C1 [Example 149, (R)-4-[7-(3-Dimethylamino-pyrrolidin-1-yl)-quinazolin-4-yl]-piperidine-1-carboxylic acid (4-pyrrolidin-1-yl-phenyl)-amide] | 8.52
3 | CN(C)[C@@H]1CCN(c2ccc3c(C4CCN(C(=O)Nc5ccc(N6CCOCC6)cc5)CC4)ncnc3c2)C1 [Example 150, (R)-4-[7-(3-Dimethylamino-pyrrolidin-1-yl)-quinazolin-4-yl]-piperidine-1-carboxylic acid (4-morpholin-4-yl-phenyl)-amide] | 7.72
4 | CN1CCC[C@H]1COc1ccc2c(C3CCN(C(=O)Nc4ccc(N5CCCC5)cc4)CC3)ncnc2c1 [Example 151, (S)-4-[7-(1-Methyl-pyrrolidin-2-ylmethoxy)-quinazolin-4-yl]-piperidine-1-carboxylic acid (4-pyrrolidin-1-yl-phenyl)-amide] | 7.35
5 | O=C(Nc1ccc(N2CCCC2)cc1)N1CCC(c2ncnc3cc(OCCN4CCC[C@H]4CO)ccc23)CC1 [Example 152, (S)-4-{7-[2-(2-Hydroxymethyl-pyrrolidin-1-yl)-ethoxy]-quinazolin-4-yl}-piperidine-1-carboxylic acid (4-pyrrolidin-1-yl-phenyl)-amide] | 7.38
6 | O=C(Nc1ccc(N2CCOCC2)cc1)N1CCC(c2ncnc3cc(OCCN4CCC[C@H]4CO)ccc23)CC1 [Example 153, (S)-4-{7-[2-(2-Hydroxymethyl-pyrrolidin-1-yl)-ethoxy]-quinazolin-4-yl}-piperidine-1-carboxylic acid (4-morpholin-4-yl-phenyl)-amide] | 6.96
7 | CC(=O)N1CC[C@@H](Oc2ccc3c(C4CCN(C(=O)Nc5ccc(N6CCCC6)cc5)CC4)ncnc3c2)C1 [Example 154, (R)-4-[7-(1-Acetyl-pyrrolidin-3-yloxy)-quinazolin-4-yl]-piperidine-1-carboxylic acid (4-pyrrolidin-1-yl-phenyl)-amide] | 8.70
8 | CNC(=O)C1CCN(c2ccc3c(C4CCN(C(=O)Nc5ccc(N6CCCC6)cc5)CC4)ncnc3c2)CC1 [Example 155, 4-[7-(4-Carboxylic acid methylamide-piperidin-1-yl)-quinazolin-4-yl]-piperidine-1-carboxylic acid (4-pyrrolidin-1-yl-phenyl)-amide] | 9.40
9 | CN1CCN(CCOc2ccc3c(C4CCN(C(=O)Nc5ccc(N6CCOCC6)cc5)CC4)ncnc3c2)CC1 [Example 156, 4-{7-[2-(4-Methyl-piperazin-1-yl)-ethoxy]-quinazolin-4-yl}-piperidine-1-carboxylic acid (4-morpholin-4-yl-phenyl)-amide] | 7.49
10 | CN1CCN(CCOc2ccc3c(C4CCN(C(=O)Nc5ccc(N6CCCC6)cc5)CC4)ncnc3c2)CC1 [Example 157, 4-{7-[2-(4-Methyl-piperazin-1-yl)-ethoxy]-quinazolin-4-yl}-piperidine-1-carboxylic acid (4-pyrrolidin-1-yl-phenyl)-amide] | 7.80
11 | CN1CCN(CCCOc2ccc3c(C4CCN(C(=O)Nc5ccc(N6CCCC6)cc5)CC4)ncnc3c2)CC1 [Example 158, 4-{7-[3-(4-Methyl-piperazin-1-yl)-propoxy]-quinazolin-4-yl}-piperidine-1-carboxylic acid (4-pyrrolidin-1-yl-phenyl)-amide] | 9.40
12 | CN1CCN(c2ccc3c(C4CCN(C(=O)Nc5ccc(N6CCCC6)cc5)CC4)ncnc3c2)CC1 [Example 159, 4-[7-(4-Methyl-piperazin-1-yl)-quinazolin-4-yl]-piperidine-1-carboxylic acid (4-pyrrolidin-1-yl-phenyl)-amide] | 8.22
